# Key:
# [1] = background statement, species and route not given; cited from earlier work
# S180 sarcoma = conditions: Dosage 30 mg/kg, i.v., S180 sarcoma-bearing mice
# Source text: (1) Sample: 3,4,5,4′-tetramethoxyl-α,β-diphenylethane-3′-O-sodium sulphate (AS) provided by Zhejiang Cell Biomedical Research Co., Ltd., and prepared by the process in Example One. Dissolved by physiological saline for the concentration needed.
# (2) Cisplatin: Cisplatin for injection (DDP), Qilu Pharmaceutical Co., Ltd. Batch No.: 5120282DC. Dissolved by physiological saline for preparation.
# (3) Control product: Cyclophosphamide for injection (CTX), Jiangsu Hengrui Pharmaceutical Inc. Co. Batch No.: 04123021 Dissolved by physiological saline for preparation.
# (1) KM mouse bearing S180 sarcoma.
# (2) 70 KM mice, female, weighting 18-22 g, provided by Zhejing College of Traditional Chinese Medicine.
# (1) Drawing ascites under aseptic condition from mouse bearing S180 sarcoma, diluting with physiologic saline 1:3, giving subcutaneous inoculation in the armpit of the right forelimb of the KM mice with 0.2 ml each; dividing the mice into 7 groups randomly the next day, 10 in each group.
# (2) Administering drug to the mice by weight the third day of inoculation, intravenous administration 0.5 ml/20 g […], by weight, and putting them to death on the 11th day after inoculation, weighing the tumor and calculating the rate of tumor inhibition.
# (3) dosage (mg/kg/d) and means of administration:
# AS: 50 mg/kg, tail vein injection
# AS: 100 mg/kg, tail vein injection
# AS: 200 mg/kg, tail vein injection
# DDP: 1 mg/kg, tail vein injection
# AS+DDP: 50 mg/kg+1 mg/kg, tail vein injection
# CTX: 30 mg/kg, tail vein injection
# Setting up another blank control group, tail vein injection of 0.9% NaCl 0.5 ml.
# (§1) (4) Judging the result with the following formula: […]
# Lewis lung cancer = assay: Joint administration of AS and DDP, murine model of Lewis lung cancer (Example Five); assay type: in vivo, C57BL/6J mice; conditions: Dosage 1 mg/kg, i.v., mice bearing Lewis lung cancer
# Source text: (1) Sample: 3,4,5,4′-tetramethoxyl-α,β-diphenylethane-3′-O-sodium sulphate (AS), raw material medicine, provided by Zhejiang Cell Biomedical Research Co., Ltd., and prepared by the process in Example One. Batch No.: 061025. Dissolved by physiological saline for the concentration needed.
# (2) Cisplatin: Cisplatin for injection (DDP), Qilu Pharmaceutical Co., Ltd. Batch No.: 5120282DC; Dissolved by physiological saline for preparation
# (3) Control product: Cyclophosphamide for injection (CTX), Jiangsu Hengrui Pharmaceutical Inc. Co. Batch No.: 04123021. Dissolved by physiological saline for preparation.
# (1) C57BL/6J mouse bearing Lewis lung cancer
# (2) 70 C57BL/6J mice, female, weighing 17-21 g. Provided by the animal house of Zhejiang Cell Biomedical Research Co., Ltd.
# (1) Taking tumor from C57BL/6J mouse under aseptic condition, grinding and diluting it by physiological saline 1:3 (weight:volume), and giving hypodermic inoculation 0.2 ml per mouse in the armpit of the right forelimb of each mouse. dividing the mice into 7 groups randomly the next day, 10 in each group.
# (2) After inoculation, waiting till the tumor has grown to the accessible size, administering medicine according to body weight, 0.5 ml/20 g intravenous, for 11 days, putting the mice to death on the 19th after inoculation, taking out and weighing the tumor, and calculating the tumor inhibiting rate.
# as §1
SMILES,LD50 [1],Tumor inhibiting rate % (S180 sarcoma),Tumor weight (S180 sarcoma),Tumor inhibiting rate % (Lewis lung cancer),Tumor weight (Lewis lung cancer)
COc1ccc(/C=C\c2cc(OC)c(OC)c(OC)c2)cc1O [Combretastatin A-4],500 mg/kg,–,–,–,–
"N.N.[Cl][Pt][Cl] [DDP, Cisplatin, reference compound]",–,70%,0.88 ± 0.50 g,46.4%,2.52 ± 0.80 g
